# Test results: patent publication US20110173718A1, “HERBICIDE TOLERANT PLANTS” (SYNGENTA CROP PROTECTION, INC., priority 2008, published 2011)
# Like-named read-outs stand apart in the source and are kept apart here. Marks after values point to notes of the source that are not given here.
# Assays:
# Chlamydomonas HST = target: T1, Chlamydomonas HST (Chlamydomonas reinhardtii, UniProt A1JHN0); assay: HST assay (TLC, MFBQ formed), recombinant Chlamydomonas HST in E. coli membranes; assay type: biochemical; conditions: for inhibition at 25 ppm: read-out: Chlamydomonas. HST % I at 25 ppm
# T1 construct: GST (N); made in house; host or cells: E. coli (BL21A1 / BL21DE3), membrane fraction
# T1 sequence (A1JHN0 51-370): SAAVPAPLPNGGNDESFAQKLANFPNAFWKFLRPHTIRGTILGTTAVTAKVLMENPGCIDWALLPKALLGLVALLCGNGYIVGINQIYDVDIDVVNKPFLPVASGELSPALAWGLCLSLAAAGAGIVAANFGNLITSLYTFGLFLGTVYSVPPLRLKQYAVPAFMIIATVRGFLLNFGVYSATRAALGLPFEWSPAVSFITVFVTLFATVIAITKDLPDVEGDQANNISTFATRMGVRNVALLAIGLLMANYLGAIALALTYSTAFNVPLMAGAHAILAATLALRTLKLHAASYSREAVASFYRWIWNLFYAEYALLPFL
# In short: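 Recombinant GST-fused Chlamydomonas HST in E. coli membranes was incubated with 200 μM farnesyl diphosphate and 100 μM 14C-homogentisate in 50 mM Tricine-NaOH pH 8.5, 20 mM MgCl2 for ~20 min at 28 °C, with compounds in DMSO. Oxidised plus reduced MFBQ was quantified by TLC phosphorimaging. Results are percent inhibition versus no-inhibitor control across doses.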
# Arabidopsis HST = target: T2, Arabidopsis HST (Arabidopsis thaliana, UniProt Q1ACB3); assay: HST total extraction (non TLC) assay, recombinant Arabidopsis HST from insect cells; assay type: biochemical
# T2 construct: GST (factor Xa cleavage site) (N); made in house; host or cells: Sf9 insect cells (baculovirus, pAcG3X), membrane fraction
# T2 sequence (Q1ACB3 70-386): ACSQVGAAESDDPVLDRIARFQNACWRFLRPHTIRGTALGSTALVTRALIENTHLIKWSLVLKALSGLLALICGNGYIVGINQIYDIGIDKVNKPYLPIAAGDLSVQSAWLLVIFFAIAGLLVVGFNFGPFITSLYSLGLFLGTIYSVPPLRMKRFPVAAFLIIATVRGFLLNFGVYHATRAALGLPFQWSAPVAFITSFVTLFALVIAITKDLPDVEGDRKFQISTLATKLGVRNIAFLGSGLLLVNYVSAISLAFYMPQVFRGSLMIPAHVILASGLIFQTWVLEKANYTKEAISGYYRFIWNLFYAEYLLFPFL
# [1] = TLC, estimated amount of MFBQ formed, relative to controls
# [2] = 25 ppm, TLC, estimated amount of MFBQ formed, relative to controls
# [3] = 3 point dose curves only conducted at 50 μM HPP
SMILES,inhibition at 25 ppm (Chlamydomonas HST; [2]) [%],Estimated IC50 (ppm) (Arabidopsis HST),also measured
"Oc1c(Cl)c(F)nc(F)c1Cl [Compound 1.1, haloxydine]",80,,"Chlamydomonas. HST % I at 10 ppm (Chlamydomonas HST; [1]): 70%; Chlamydomonas. HST % I at 100 ppm (Chlamydomonas HST; [1]): 95%; inhibition of the HST enzyme reaction (MFBQ and other products) (Chlamydomonas HST; 500 ppm, stated for the HST enzyme preparations assayed): completely inhibits"
O=c1c(-c2c(Cl)ccc(Cl)c2Cl)c(O)c2nccnc2n1CC(F)F [Compound 2.14],85,9,
O=c1c(-c2c(F)ccc(Br)c2Cl)c(O)c2cccnc2n1CC(F)F [Compound 2.15],,12,
O=c1c(-c2c(F)ccc(F)c2Cl)c(O)c2cccnc2n1CC(F)F [Compound 2.13],,,Chlamydomonas. HST % I at 25 ppm (Chlamydomonas HST; [2]): 60%; Estimated IC50 (ppm) (Arabidopsis HST; [3]): 54* ppm
O=c1c(-c2c(F)ccc(Br)c2Cl)c(O)c2nccnc2n1CC(F)F [Compound 2.8],85,12,
O=c1c(-c2c(F)ccc(F)c2Cl)c(O)c2nccnc2n1CC(F)F [Compound 2.3],,,Chlamydomonas. HST % I at 10 ppm (Chlamydomonas HST; [1]): 40%; Chlamydomonas. HST % I at 100 ppm (Chlamydomonas HST; [1]): 85%; Estimated IC50 (ppm) (Arabidopsis HST; [3]): 19* ppm
O=c1c(-c2cc(C(F)(F)F)ccc2Cl)c(O)c2nccnc2n1CC(F)F [Compound 2.9],90,6,
